The values that follow come from patent publication US9505729B2, “Isoxazole analogs as mediators of transcriptional induction of E-cadherin” (Vanderbilt University, priority 2014, dated 2016).

In the first assay the test system is E-cadherin expression in SW620 cells. Description: In-cell Western (ICW) cell-based functional assay of E-cadherin expression in SW620 cells. To be noted: Homo sapiens, SW-620; change in expression level of E-cadherin in response to 10 μM compound, SW620 cells, 24 hours. How it is done:
SW620 and H520 cells (5×10^4/100 μL) were seeded in a 96-well plate prior to treatment. Cells were treated with 10 μM concentration of synthesized compound in quadruplicate for 24 hours in RPMI 1640 supplemented medium and 100 μg/mL penicillin-streptomycin. The cells were then fixed with 100% methanol for 20 minutes at 4° C. The wells were then washed 2 times with PBS, permeabilized in 2% bovine serum albumin (BSA) and 0.2% TritonX-100 in PBS for 30 minutes at room temperature with gentle agitation, and blocked in LI-COR blocking buffer for 30 minutes at room temperature with gentle agitation. The cells were then incubated with the following primary antibodies: anti-E-Cadherin (1:500) and anti-α-Tubulin (1:1000) diluted in blocking buffer (1:1 dilution in PBS) for 2 hours at room temperature with gentle agitation. The cells were washed 4 times in PBS-T for 5 minutes each, and then incubated with the following secondary antibodies conjugated to a fluorescent entity: IRDye 800-conjugated goat anti-rabbit IgG (1:1000) and IRDye-700-conjugated goat anti-mouse IgG (1:2000) in blocking buffer (1:1 dilution in PBS) with gentle agitation for 1 h at room temperature. The cells were washed 4 times in PBS-T for 5 minutes each followed by a single wash with PBS. All liquid was removed from the wells and the plates were visualized and analyzed on the Odyssey IR imaging system (LI-COR Biosciences).
The assay was further optimized in the following manner. The cells were washed 2 times with PBS, fixed in 100% methanol at room temperature for 15 minutes, and again washed 2 times with PBS. The cells were then incubated with the following primary antibodies: anti-E-Cadherin (1:200) and anti-α-Tubulin (1:2000) diluted in ice cold 2% bovine serum albumin (BSA) and 0.2% TritonX-100 in PBS for 1 hour at room temperature with gentle agitation. The cells were washed 2 times in PBS and then incubated with the following secondary antibodies conjugated to a fluorescent entity: Licor 800-conjugated goat anti-rabbit IgG (1:2000) and IRDye-700-conjugated goat anti-mouse IgG (1:2000) in ice cold 2% BSA and 0.2% TritonX-100 in PBS with gentle agitation for 45 minutes at room temperature. The wells were washed 2 times in PBS, dried, and analyzed as previously mentioned.
N-(3-(Arylamino)alkyl)-5-arylisoxazole-3-carboxamide analogs were synthesized as described above. Changes in expression level of E-cadherin in response to 10 μM compound in SW620 cells was determined in the cell-based functional assay as described above, and the data are shown in Table II. The compound number corresponds to the compound numbers used in Table I.
EC50 of inducement of E-cadherin expression in SW620 cells was determined in the cell-based functional assay as described above, and the data are shown in Table III. The compound number corresponds to the compound numbers used in Table I.
Turning to `O=C(NCCCNCc1ccc(O)cc1O)c1cc(-c2ccccc2)[nH]n1` [Compound 33, N-(3-((2,4-dihydroxybenzyl)amino)propyl)-5-phenyl-1H-pyrazole-3-carboxamide], the fold induction at 10 µM amounted to 3.4.
Regarding `[N-]=[N+]=Nc1nccc(NCCCNC(=O)c2cc(-c3ccccc3)on2)n1` [Compound 17, N-(3-((2-azidopyrimidin-4-yl)amino)propyl)-5-phenylisoxazole-3-carboxamide], the fold induction at 10 µM stood at 1.07.
The same measure, in the same setting: under `CC(=O)n1cc(CNCCCNC(=O)c2cc(-c3ccccc3)[nH]n2)c2ccccc21` [Compound 34, N-(3-(((1-acetyl-1H-indol-3-yl)methyl)amino)propyl)-5-phenyl-1H-pyrazole-3-carboxamide] stands 3.58.
On the same count and under the same terms, for `COc1cncc(CNCCCNC(=O)c2cc(-c3ccccc3)[nH]n2)c1` [Compound 28, N-(3-(((5-methoxypyridin-3-yl)methyl)amino)propyl)-5-phenyl-1H-pyrazole-3-carboxamide] the value was 1.8; for `O=C(NCCCNCc1ccccn1)c1cc(-c2ccccc2)[nH]n1` [Compound 23, 5-phenyl-N-(3-((pyridin-2-ylmethyl)amino)propyl)-1H-pyrazole-3-carboxamide], 1.44.
Still for that read-out and setting: under `O=C(NCCCNCc1ccccc1O)c1cc(-c2ccccc2)on1` [Compound 16, N-(3-((2-hydroxybenzyl)amino)propyl)-5-phenylisoxazole-3-carboxamide] stands 0.98; under `O=C(NCCCNCc1ccc(O)cc1O)c1cc(-c2ccccc2)on1` [Compound 12, N-(3-((2,4-dihydroxybenzyl)amino)propyl)-5-phenylisoxazole-3-carboxamide], 0.91.
As for `O=C(NCCCN(Cc1ccc(O)c(O)c1)Cc1ccc(O)c(O)c1)c1cc(-c2ccccc2)[nH]n1` [Compound 27, N-(3-(bis(3,4-dihydroxybenzyl)amino)propyl)-5-phenyl-1H-pyrazole-3-carboxamide], the fold induction at 10 µM was determined as 1.67.
Same read-out and setting: for `O=C(NCCCNCc1c[nH]c2ncccc12)c1cc(-c2ccccc2)[nH]n1` [Compound 30, N-(3-(((1H-pyrrolo[2,3-b]pyridin-3-yl)methyl)amino)propyl)-5-phenyl-1H-pyrazole-3-carboxamide] the value was 2.33; for `O=C(NCCCN(Cc1cnoc1)Cc1cnoc1)c1cc(-c2ccccc2)[nH]n1` [Compound 36, N-(3-(bis(isoxazol-4-ylmethyl)amino)propyl)-5-phenyl-1H-pyrazole-3-carboxamide], 5.77; for `O=C(NCCCNCc1cccnc1)c1cc(-c2ccccc2)[nH]n1` [Compound 22, 5-phenyl-N-(3-((pyridin-3-ylmethyl)amino)propyl)-1H-pyrazole-3-carboxamide], 1.16.
In the case of `Cc1ncc(CNCCCNC(=O)c2cc(-c3ccccc3)on2)o1` [Compound 4, N-(3-(((2-methyloxazol-5-yl)methyl)amino)propyl)-5-phenylisoxazole-3-carboxamide], the fold induction at 10 µM came to 0.71.
On the same count and under the same terms, for `COc1cncc(CN(CCCNC(=O)c2cc(-c3ccccc3)[nH]n2)Cc2cncc(OC)c2)c1` [Compound 29, N-(3-(bis((5-methoxypyridin-3-yl)methyl)amino)propyl)-5-phenyl-1H-pyrazole-3-carboxamide] the value was 2.09; for `[N-]=[N+]=Nc1nccc(NCCCNC(=O)c2cc(-c3ccccc3)[nH]n2)n1` [Compound 37, N-(3-((2-azidopyrimidin-4-yl)amino)propyl)-5-phenyl-1H-pyrazole-3-carboxamide], 6.09.
Same read-out and setting: under `Cc1cc(CNCCCNC(=O)c2cc(-c3ccccc3)on2)on1` [Compound 11, N-(3-(((3-methylisoxazol-5-yl)methyl)amino)propyl)-5-phenylisoxazole-3-carboxamide] stands 0.9.
For `O=C(NCCCNCc1cnoc1)c1cc(-c2ccccc2)[nH]n1` [Compound 35, N-(3-((isoxazol-4-ylmethyl)amino)propyl)-5-phenyl-1H-pyrazole-3-carboxamide], the fold induction at 10 µM worked out at 3.59.
On the same count and under the same terms, under `O=C(NCCCN(Cc1ccccn1)Cc1ccccn1)c1cc(-c2ccccc2)on1` [Compound 6, N-(3-(bis(pyridin-2-ylmethyl)amino)propyl)-5-phenylisoxazole-3-carboxamide] stands 0.82.
Consider `O=C(NCCCNCc1cccnc1)c1cc(-c2ccccc2)on1` [Compound 3, 5-phenyl-N-(3-((pyridin-3-ylmethyl)amino)propyl)isoxazole-3-carboxamide], for which the fold induction at 10 µM stood at 0.7.
The same measure, in the same setting: for `O=C(NCCCNCc1c[nH]c2ncccc12)c1cc(-c2ccccc2)on1` [Compound 10, N-(3-(((1H-pyrrolo[2,3-b]pyridin-3-yl)methyl)amino)propyl)-5-phenylisoxazole-3-carboxamide] the value was 0.91.
On the same count and under the same terms, for `[N-]=[N+]=Nc1ccnc(NCCCNC(=O)c2cc(-c3ccccc3)[nH]n2)n1` [Compound 39, N-(3-((4-azidopyrimidin-2-yl)amino)propyl)-5-phenyl-1H-pyrazole-3-carboxamide] the value was 15.9; for `N#Cc1ccc(NCCCNC(=O)c2cc(-c3ccccc3)on2)nc1` [Compound 1, N-(3-((5-cyanopyridin-2-yl)amino)propyl)-5-phenylisoxazole-3-carboxamide], 0.63.
Take `Cc1cc(CN(CCCNC(=O)c2cc(-c3ccccc3)[nH]n2)Cc2cc(C)no2)on1` [Compound 32, N-(3-(bis((3-methylisoxazol-5-yl)methyl)amino)propyl)-5-phenyl-1H-pyrazole-3-carboxamide]: the fold induction at 10 µM amounted to 3.06.
Same read-out and setting: under `O=C(NCCCNCc1ccccc1O)c1cc(-c2ccccc2)[nH]n1` [Compound 21, N-(3-((2-hydroxybenzyl)amino)propyl)-5-phenyl-1H-pyrazole-3-carboxamide] stands 1.14; under `COc1cncc(CNCCCNC(=O)c2cc(-c3ccccc3)on2)c1` [Compound 9, N-(3-(((5-methoxypyridin-3-yl)methyl)amino)propyl)-5-phenylisoxazole-3-carboxamide], 0.89; under `CC(=O)n1cc(CNCCCNC(=O)c2cc(-c3ccccc3)on2)c2ccccc21` [Compound 13, N-(3-(((1-acetyl-1H-indol-3-yl)methyl)amino)propyl)-5-phenylisoxazole-3-carboxamide], 0.91.
Same read-out and setting: for `O=C(NCCCN(Cc1cnoc1)Cc1cnoc1)c1cc(-c2ccccc2)on1` [Compound 15, N-(3-(bis(isoxazol-4-ylmethyl)amino)propyl)-5-phenylisoxazole-3-carboxamide] the value was 0.95; for `O=C(NCCCNCc1cnoc1)c1cc(-c2ccccc2)on1` [Compound 14, N-(3-((isoxazol-4-ylmethyl)amino)propyl)-5-phenylisoxazole-3-carboxamide], 0.94.
On the same count and under the same terms, for `Cc1ncc(CN(CCCNC(=O)c2cc(-c3ccccc3)on2)Cc2cnc(C)o2)o1` [Compound 7, N-(3-(bis((2-methyloxazol-5-yl)methyl)amino)propyl)-5-phenylisoxazole-3-carboxamide] the value was 0.83.
For `Cc1ncc(CNCCCNC(=O)c2cc(-c3ccccc3)[nH]n2)o1` [Compound 24, N-(3-(((2-methyloxazol-5-yl)methyl)amino)propyl)-5-phenyl-1H-pyrazole-3-carboxamide], the fold induction at 10 µM was found to be 1.5.
As to `O=C(NCCCNCc1c[nH]c2ccccc12)c1cc(-c2ccccc2)on1` [Compound 2, N-(3-(((1H-indol-3-yl)methyl)amino)propyl)-5-phenylisoxazole-3-carboxamide], the fold induction at 10 µM was determined as 0.68.
On the same count and under the same terms, for `Cc1cc(CNCCCNC(=O)c2cc(-c3ccccc3)[nH]n2)on1` [Compound 31, N-(3-(((3-methylisoxazol-5-yl)methyl)amino)propyl)-5-phenyl-1H-pyrazole-3-carboxamide] the value was 2.52; for `O=C(NCCCNCc1ccc(O)c(O)c1)c1cc(-c2ccccc2)on1` [Compound 8, N-(3-((3,4-dihydroxybenzyl)amino)propyl)-5-phenylisoxazole-3-carboxamide], 0.84.

The assay is the same for the next values; noted with them: Homo sapiens, SW-620; inducement of E-cadherin expression in SW620 cells.
For `O=C(NCCCN(Cc1cnoc1)Cc1cnoc1)c1cc(-c2ccccc2)[nH]n1` [Compound 36, N-(3-(bis(isoxazol-4-ylmethyl)amino)propyl)-5-phenyl-1H-pyrazole-3-carboxamide], the EC50 is 12 µM.
Molecule `[N-]=[N+]=Nc1nccc(NCCCNC(=O)c2cc(-c3ccccc3)[nH]n2)n1` [Compound 37, N-(3-((2-azidopyrimidin-4-yl)amino)propyl)-5-phenyl-1H-pyrazole-3-carboxamide] registered an EC50 of 15 µM.
Still for that read-out and setting: under `[N-]=[N+]=Nc1ccnc(NCCCNC(=O)c2cc(-c3ccccc3)[nH]n2)n1` [Compound 39, N-(3-((4-azidopyrimidin-2-yl)amino)propyl)-5-phenyl-1H-pyrazole-3-carboxamide] stands 5.32 µM.

As a reminder, the fold induction is the ratio of treated to control signal. For orientation: EC50 means the concentration at which the effect is half-maximal. A high value points to a need for much substance.
